The results in this text go back to patent publication US6727232B2, “Nucleoside peptide antibiotics of AA-896” (Wyeth Holdings Corporation, priority 2001, dated 2004).

SMILES strings stand for the structures. ≈ marks a conversion by molar mass, not a printed value.

Test in all cases: Broth dilution MIC
Format in all cases: cell-based
(Broth dilution looks for growth in wells or tubes with falling amounts of substance.)

Assay [1] has as its system E. coli GC 2203. Particulars: Escherichia coli, GC2203; E. coli GC 2203; Mueller-Hinton broth, 18 hours at 35° C.; read-out: Antimicrobial Activity (MIC). An outline of the steps: (§1)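 Broth dilution in Mueller-Hinton medium with 18 h incubation at 35° C.; the minimal concentration that stops growth of each strain is the MIC.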
The test system of assay [2] is E. coli GC 4560. The settings on record: Escherichia coli, GC4560, 18 h, read-out: Antimicrobial Activity (MIC). An outline of the steps:
as §1

Assay [3] relates to K. pneumoniae GC 4534. The settings on record: Klebsiella pneumoniae, GC4534; K. pneumoniae GC 4534; Mueller-Hinton broth, 18 hours at 35° C.; read-out: Antimicrobial Activity (MIC). An outline of the steps:
as §1

Assay [4] has as its system S. aureus GC 2216. The settings on record: Staphylococcus aureus, GC2216; S. aureus GC 2216; Mueller-Hinton broth, 18 hours at 35° C.; read-out: Antimicrobial Activity (MIC). An outline of the steps: as §1
Assay [5] relates to E. coli GC 3226. The settings on record: Escherichia coli, GC3226; E. coli GC 3226; Mueller-Hinton broth, 18 hours at 35° C.; read-out: Antimicrobial Activity (MIC). Summed up:
as §1

Assay [6] relates to S. marcescens GC 4077. Particulars: Serratia marcescens, GC4077; S. marcescens GC 4077; Mueller-Hinton broth, 18 hours at 35° C.; read-out: Antimicrobial Activity (MIC). An outline of the steps:
as §1

The subject of assay [7] is CNS GC 4537. Particulars: CNS GC 4537; Mueller-Hinton broth, 18 hours at 35° C.; read-out: Antimicrobial Activity (MIC). An outline of the steps: as §1
The test system of assay [8] is E. cloacae GC 3783. Particulars: Enterobacter cloacae, GC3783; E. cloacae GC 3783; Mueller-Hinton broth, 18 hours at 35° C.; read-out: Antimicrobial Activity (MIC). An outline of the steps:
as §1

Assay [9] relates to CNS GC 4538. Particulars: CNS GC 4538; Mueller-Hinton broth, 18 hours at 35° C.; read-out: Antimicrobial Activity (MIC). An outline of the steps:
as §1

The test system of assay [10] is P. aeruginosa GC 4532. Particulars: Pseudomonas aeruginosa, GC4532; P. aeruginosa GC 4532; Mueller-Hinton broth, 18 hours at 35° C.; read-out: Antimicrobial Activity (MIC). An outline of the steps:
as §1

In assay [11] the test system is E. faecalis GC 2242. Particulars: Enterococcus faecalis, GC2242; E. faecalis GC 2242; Mueller-Hinton broth, 18 hours at 35° C.; read-out: Antimicrobial Activity (MIC). Summed up:
as §1

Assay [12] concerns CNS GC 4547. Particulars: CNS GC 4547; Mueller-Hinton broth, 18 hours at 35° C.; read-out: Antimicrobial Activity (MIC). An outline of the steps:
as §1

In assay [13] the test system is E. faecalis GC 4555. The settings on record: Enterococcus faecalis, GC4555; E. faecalis GC 4555; Mueller-Hinton broth, 18 hours at 35° C.; read-out: Antimicrobial Activity (MIC). Summed up: as §1
The test system of assay [14] is S. aureus GC 1131. The settings on record: Staphylococcus aureus, GC1131; S. aureus GC 1131; Mueller-Hinton broth, 18 hours at 35° C.; read-out: Antimicrobial Activity (MIC). Summed up: as §1
Assay [15] relates to M. morganii GC 4531. Particulars: Morganella morganii, GC4531; M. morganii GC 4531; Mueller-Hinton broth, 18 hours at 35° C.; read-out: Antimicrobial Activity (MIC). An outline of the steps:
as §1

Assay [16] has as its system P. aeruginosa GC 2214. The settings on record: Pseudomonas aeruginosa, GC2214; P. aeruginosa GC 2214; Mueller-Hinton broth, 18 hours at 35° C.; read-out: Antimicrobial Activity (MIC). Summed up:
as §1

Assay [17] has as its system S. aureus GC 4536. Particulars: Staphylococcus aureus, GC4536; S. aureus GC 4536; Mueller-Hinton broth, 18 hours at 35° C.; read-out: Antimicrobial Activity (MIC). Summed up:
as §1

For assay [18], the system named is E. faecalis GC 842. The settings on record: Enterococcus faecalis, GC842; E. faecalis GC 842; Mueller-Hinton broth, 18 hours at 35° C.; read-out: Antimicrobial Activity (MIC). An outline of the steps:
as §1

Assay [19] relates to P. rettgeri GC 4530. The settings on record: Providencia rettgeri, GC4530; P. rettgeri GC 4530; Mueller-Hinton broth, 18 hours at 35° C.; read-out: Antimicrobial Activity (MIC). An outline of the steps: as §1
The subject of assay [20] is E. coli GC 4559. The settings on record: Escherichia coli, GC4559; E. coli GC 4559; Mueller-Hinton broth, 18 hours at 35° C.; read-out: Antimicrobial Activity (MIC). Summed up: as §1

The term MIC denotes the lowest concentration that inhibits growth of the organism.

For the molecule `CCCCCNC[C@H]1OC(O[C@H](C(NCCCNC(=O)C(NC(=O)C(NC(=O)NC(C(=O)O)C(C)C)C2CCNC(=N)N2)C(O)C(C)C)C(=O)O)[C@H]2O[C@@H](n3ccc(=O)[nH]c3=O)[C@H](O)[C@@H]2O)[C@H](OC)[C@H]1O` (stereo partly drawn) [Example 18, 16-[(R)-{(2S,3S,4R,5R)-5-[2,4-Dioxo-3,4-dihydro-1 (2H)-pyrimidinyl]-3,4-dihydroxytetrahydro-2-furanyl}({(3R,4S,5R)-4-hydroxy-3-methoxy-5-[(pentylamino)methyl]tetrahydro-2-furanyl}oxy)methyl]-9-(1-hydroxy-2-methylpropyl)-6-(2-iminohexahydro-4-pyrimidinyl)-2-isopropyl-4,7,10-trioxo-3,5,8,11,15-pentaazaheptadecane-1,17-dioic Acid], the MIC in [1], in assay [2], in assay [3], in [4], in assay [5] and in assay [6] was greater than 32 µg/mL in each case. Further, the minimal inhibitory concentration (MIC) in assay [7], in assay [8], in assay [9], in [10], in assay [11] and in [12] was greater than 32 µg/mL throughout. Further, the MIC in assay [13], in assay [14], in assay [15], in assay [16], in assay [17] and in [18] was greater than 32 µg/mL each time. For the same molecule, the MIC in assay [19] and in assay [20] was greater than 32 µg/mL in each case.
For the molecule `CO[C@H]1C(O[C@H](C(NCCCNC(=O)C(NC(=O)C(NC(=O)NC(C(=O)O)C(C)C)C2CCNC(=N)N2)C(O)C(C)C)C(=O)O)[C@H]2O[C@@H](n3ccc(=O)[nH]c3=O)[C@H](O)[C@@H]2O)O[C@H](CNCc2ccc(-c3ccccc3)cc2)[C@@H]1O` (stereo partly drawn) [Example 19A, 16-((R)-[((3R,4S,5R)-5-{[([1,1′-Biphenyl]-4-ylmethyl)amino]methyl}-4-hydroxy-3-methoxytetrahydro-2-furanyl)oxy]{(2S,3S,4R,5R)-5-[2,4-dioxo-3,4-dihydro-1 (2H)-pyrimidinyl]-3,4-dihydroxytetrahydro-2-furanyl}methyl)-9-(1-hydroxy-2-methylpropyl)-6-(2-iminohexahydro-4-pyrimidinyl)-2-isopropyl-4,7,10-trioxo-3,5,8,11,15-pentaazaheptadecane-1,17-dioic Acid], the MIC in [1] was greater than 32 µg/mL; in assay [2], 16 µg/mL (≈ 14.4 µM); in [3], greater than 32 µg/mL; in assay [4] it was greater than 32 µg/mL; in assay [5], greater than 32 µg/mL; in assay [6], greater than 32 µg/mL. Moreover, the MIC in assay [7], in assay [8], in assay [9], in assay [10], in assay [11] and in assay [12] was greater than 32 µg/mL in each case. The MIC in [13], in [14], in assay [15], in assay [16], in [17] and in [18] was greater than 32 µg/mL throughout. Moreover, the minimal inhibitory concentration (MIC) in [19] and in assay [20] was greater than 32 µg/mL each time.
Regarding `CO[C@H]1C(O[C@H](C(C(=O)O)N(CCCNC(=O)C(NC(=O)C(NC(=O)NC(C(=O)O)C(C)C)C2CCNC(=N)N2)C(O)C(C)C)Cc2ccc(-c3ccccc3)cc2)[C@H]2O[C@@H](n3ccc(=O)[nH]c3=O)[C@H](O)[C@@H]2O)O[C@H](CNCc2ccc(-c3ccccc3)cc2)[C@@H]1O` (stereo partly drawn) [Example 19B, 15-([1,1′-Biphenyl]-4-ylmethyl)-16-((R)-[((3R,4S,5R)-5-{[([1,1′-biphenyl]-4-ylmethyl)amino]methyl}-4-hydroxy-3-methoxytetrahydro-2-furanyl)oxy]{(2S,3S,4R,5R)-5-[2,4-dioxo-3,4-dihydro-1 (2H)-pyrimidinyl]-3,4-dihydroxytetrahydro-2-furanyl}methyl)-9-(1-hydroxy-2-methylpropyl)-6-(2-iminohexahydro-4-pyrimidinyl)-2-isopropyl-4,7,10-trioxo-3,5,8,11,15-pentaazaheptadecane-1,17-dioic Acid], the MIC in assay [1], in [2], in assay [3], in assay [4], in [5] and in assay [6] was greater than 32 µg/mL each time. The MIC in assay [7], in assay [8], in [9], in assay [10], in [11] and in assay [12] was greater than 32 µg/mL each time. The minimum inhibitory concentration (MIC) in [13], in assay [14], in assay [15], in assay [16], in assay [17] and in assay [18] was greater than 32 µg/mL throughout. Also, the minimum inhibitory concentration (MIC) in assay [19] and in assay [20] was greater than 32 µg/mL each time.
As for `CO[C@H]1C(O[C@H](C(NCCCNC(=O)C(NC(=O)C(NC(=O)NC(C(=O)O)C(C)C)C2CCNC(=N)N2)C(O)C(C)C)C(=O)O)[C@H]2O[C@@H](n3ccc(=O)[nH]c3=O)[C@H](O)[C@@H]2O)O[C@H](CNCc2ccccc2)[C@@H]1O` (stereo partly drawn) [Example 20A, 16-((R)-({(3R,4S,5R)-5-[(Benzylamino)methyl]-4-hydroxy-3-methoxytetrahydro-2-furanyl}oxy){(2S,3S,4R,5R)-5-[2,4-dioxo-3,4-dihydro-1 (2H)-pyrimidinyl]-3,4-dihydroxytetrahydro-2-furanyl}methyl)-9-(1-hydroxy-2-methylpropyl)-6-(2-iminohexahydro-4-pyrimidinyl)-2-isopropyl-4,7,10-trioxo-3,5,8,11,15-pentaazaheptadecane-1,17-dioic acid], the MIC in [1], in assay [2], in assay [3], in assay [4], in assay [5] and in [6] was greater than 32 µg/mL each time. Also, the minimum inhibitory concentration (MIC) in assay [7], in assay [8], in assay [9], in assay [10], in assay [11] and in assay [12] was greater than 32 µg/mL throughout. For the same molecule, the minimal inhibitory concentration (MIC) in assay [13], in assay [14], in assay [15], in assay [16], in assay [17] and in assay [18] was greater than 32 µg/mL throughout. For the same molecule, the MIC in assay [19] and in [20] was greater than 32 µg/mL throughout.
